Assay results taken from patent US11814376B2, “Hepatitis b core protein modulators” (Assembly Biosciences, Inc., priority 2015, dated 2023).

What was measured:
[1] = tested on: HBV viral load in AD38 cells; experiment: Viral load production in AD38 cells, quantitative PCR of the core sequence in supernatant; format: cell-based; settings: 10 μM compound, 6 days at 37° C., supernatant qPCR, relative to DMSO control; for activity at 10 µM: Hepatitis B virus, 144 h, read-out: AD38 Viral Load (%) (VL with cmpd/VL in DMSO control) at 10 μM
[2] = tested on: AD38 cells; experiment: Viability of AD38 cells (Promega CellTiter-Glo); format: cell-based; settings: 10 μM compound, 6 days, CellTiter-Glo luminescence normalized to DMSO control (100%)
Method in brief: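 After 6 days of compound exposure at 37° C (compound added as 10× solution in 10% DMSO; 50,000 cells/well, collagen-coated), medium was replaced with tetracycline-free DMEM/F12, 2% FBS, 1% DMSO. CellTiter-Glo luminescence was then recorded and normalized to DMSO-treated wells as 100% viability.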

Structure (SMILES)	activity at 10 µM [1]	AD38 Viability Normalized Result (cmpd/DMSO %) at 10 μM [2]	AD38 Viral Load (%) (VL with cmpd/VL in DMSO control) at 10 μM [1]
CN(C)CCCOc1ncc(CNC(=O)c2ccc3c(c2)NC(=O)c2ccccc2O3)s1 [compound 1691, N-((2-(3-(dimethylamino)propoxy)thiazol-5-yl)methyl)-11-oxo-10, 11-dihydrodibenzo [b, f] [1, 4] oxazepine-8-carboxamide]	77.1%	89%	
O=C(NCc1cnc(-c2ccc3ncccc3c2)s1)c1ccc2c(c1)NC(=O)c1ccccc1O2 [compound 1831]	3.8%	112%	
O=C(NCc1cnc(-c2ccc(OCCCN3CCCCC3)cc2)s1)c1ccc2c(c1)NC(=O)c1ccccc1O2 [compound 11160, 11-oxo-N-((2-(4-(3-(piperidin-1-yl)propoxy)phenyl)thiazol-5-yl)methyl)-10, 11-dihydrodibenzo [b, f] [1, 4] oxazepine-8-carboxamide]	17.7%	104%	
O=C(NCc1cnc(-c2ccc(-c3nccs3)cc2)s1)c1ccc2c(c1)NC(=O)c1ccccc1S2(=O)=O [compound 1954]	0.5%	106%	
Cc1cc(-c2ncc(CNC(=O)c3ccc4c(c3)NC(=O)c3ccccc3O4)s2)ccc1O [compound 1736, N-((2-(4-hydroxy-3-methylphenyl)thiazol-5-yl)methyl)-11-oxo-10, 11-dihydrodibenzo [b, f] [1, 4] oxazepine-8-carboxamide]	6.8%	94%	
O=C(NCc1cnc(-c2ccc(O)cc2)s1)c1ccc2c(c1)NC(=O)c1ccccc1C2 [compound 1734]	10.6%	96%	
CN(C)CC(O)COc1ccc(-c2ncc(CNC(=O)c3ccc4c(c3)NC(=O)c3ccccc3S4(=O)=O)s2)cc1 (stereo not drawn) [compound 11085]	3.4%	88%	
COc1ccc(-c2ncc(CNC(=O)c3ccc4c(c3)NC(=O)c3ccccc3S4(=O)=O)s2)cc1 [compound 1596]	3.8%	25%	
O=C(NCc1cnc(-c2ccc(OCCCOn3nnc4cccnc43)cc2)s1)c1ccc2c(c1)NC(=O)c1ccccc1S2(=O)=O [11108-B, N-((2-(4-(3-((3H-[1,2,3]triazolo[4,5-b]pyridin-3-yl)oxy)propoxy)phenyl)thiazol-5-yl)methyl)-11-oxo-10,11-dihydrodibenzo[b, f] [1,4]thiazepine-8-carboxamide 5,5-dioxide]	0.8%	101%	
O=C(NCc1cnc(-c2ccc(O)cc2)s1)c1ccc2c(c1)NC(=O)c1ccc(Cl)cc1S2 [compound 1761]	10.7%	97%	
O=C(O)CNc1ncc(CNC(=O)c2ccc3c(c2)NC(=O)c2ccccc2O3)s1 [compound 1615, (5-((11-oxo-10, 11-dihydrodibenzo [b, f] [1, 4]oxazepine-8-carboxamido)methyl)thiazol-2-yl) glycine]	54.9%	103%	
CN(C)CCCCc1ccc(-c2ncc(CNC(=O)c3ccc4c(c3)NC(=O)c3ccccc3S4(=O)=O)s2)cc1 [compound 11005, N-((2-(4-(4-(dimethylamino)butyl)phenyl)thiazol-5-yl)methyl)-11-oxo-10, 11-dihydrodibenzo [b, f] [1, 4] thiazepine-8-carboxamide 5,5-dioxide]	1.9%	102%	
N#Cc1ccc(-c2ncc(CNC(=O)c3cc4c(cc3Cl)S(=O)(=O)c3ccccc3C(=O)N4)s2)cc1 [compound 1935]	0.7%	112%	
O=C(NCc1cnc(-c2nccs2)s1)c1ccc2c(c1)NC(=O)c1ccccc1O2 [compound 1893]	2%	91%	
O=C(O)c1ccc(-c2ncc(CNC(=O)c3ccc4c(c3)NC(=O)c3ccccc3S4)s2)cc1 [compound 1599, 4-(5-((11-oxo-10, 11-dihydrodibenzo [b, f] [1, 4]thiazepine-8-carboxamido)methyl)thiazol-2-yl) benzoic acid]	5.9%	61%	
O=C(NCc1cnc(-n2ccc(F)n2)s1)c1ccc2c(c1)NC(=O)c1ccccc1S2(=O)=O [compound 11045]	0.6%	94%	
O=C(NCc1cnc(-c2ccc(OCCN3CCOCC3)cc2)s1)c1ccc2c(c1)NC(=O)c1ccccc1S2(=O)=O [compound 1587]	2.8%	99%	
O=C(NCc1cnc(-c2ccc3[nH]ccc3c2)s1)c1ccc2c(c1)NC(=O)c1ccccc1O2 [compound 1696]	0.8%	109%	
O=C(NCc1cnc(-c2ccc(O)cc2)s1)c1ccc2c(c1)NC(=O)c1c(F)cccc1S2 [compound 1752]	29.8%	98%	
CC(C)N(C)CCCCc1ccc(-c2ncc(CNC(=O)c3ccc4c(c3)NC(=O)c3ccccc3S4(=O)=O)s2)cc1 [compound 11093]	4.6%	102%	

Structure (SMILES)	activity at 10 µM [1]	AD38 Viability Normalized Result (cmpd/DMSO %) at 10 μM [2]	AD38 Viral Load (%) (VL with cmpd/VL in DMSO control) at 10 μM [1]
COc1ccc(-c2ncc(CNC(=O)c3ccc4c(c3)NC(=O)c3ccccc3S4(=O)=O)s2)cn1 [compound 1666, N-((2-(6-methoxypyridin-3-yl)thiazol-5-yl)methyl)-11-oxo-10, 11-dihydrodibenzo [b, f] [1, 4] thiazepine-8-carboxamide 5,5-dioxide]	0.9%	98%	
O=C(NCc1cnc(N2CCOCC2)s1)c1ccc2c(c1)NC(=O)c1ccccc1O2 [compound 1611]	1.4%	100%	
Cc1nc(C)c(CNC(=O)c2ccc3c(c2)NC(=O)c2ccccc2S3(=O)=O)s1 [compound 1763]	12.9%	93%	
CCOC(=O)c1cnn(-c2ncc(CNC(=O)c3ccc4c(c3)NC(=O)c3ccccc3S4(=O)=O)s2)c1 [compound 11116]	0.9%	97%	
O=C(NCc1cnc(-c2ccc(O)c(F)c2)s1)c1ccc2c(c1)NC(=O)c1ccccc1O2 [compound 1700]	9.2%	105%	
NCCCS(=O)(=O)c1ccc(-c2ncc(CNC(=O)c3ccc4c(c3)NC(=O)c3ccccc3S4(=O)=O)s2)cc1.O=C(O)C(F)(F)F [compound 11032, N-((2-(4-((3-aminopropyl)sulfonyl)phenyl)thiazol-5-yl)methyl)-11-oxo-10, 11-dihydrodibenzo [b, f] [1, 4] thiazepine-8-carboxamide 5,5-dioxide TFA salt]	51.7%	103%	
CNc1ncc(CNC(=O)c2ccc3c(c2)NC(=O)c2ccccc2S3)s1 [compound 1424]	0.5%	97%	
O=C(NCc1cnc(-c2ccc(OCCCN3CCC3)cc2)s1)c1ccc2c(c1)NC(=O)c1ccccc1S2(=O)=O [compound 11142]		87%	0.8%
O=C(NCc1cnc(-c2cncnc2)s1)c1ccc2c(c1)NC(=O)c1ccccc1S2(=O)=O [compound 1626]	2.7%	99%	
CN1CCN(c2ncc(CNC(=O)c3ccc4c(c3)NC(=O)c3ccccc3S4(=O)=O)s2)CC1 [compound 1648]	9.9%	95%	
CN(C)C(=O)c1ccc(-c2ncc(CNC(=O)c3ccc4c(c3)NC(=O)c3ccccc3S4(=O)=O)s2)cc1 [compound 1944]	2.5%	93%	
CN(C)C1CCN(c2ncc(CNC(=O)c3ccc4c(c3)NC(=O)c3ccccc3S4(=O)=O)s2)CC1 [compound 1636]	76.9%	95%	
O=C(NCc1cnc(N2CCS(=O)(=O)CC2)s1)c1ccc2c(c1)NC(=O)c1ccccc1S2(=O)=O [compound 1860]	7.5%	98%	
CN(C)CCSc1ncc(CNC(=O)c2ccc3c(c2)NC(=O)c2ccccc2S3)s1 [compound 1604]	0.9%	82%	
NC(=O)c1ccc(-c2ncc(CNC(=O)c3ccc4c(c3)NC(=O)c3ccccc3S4(=O)=O)s2)cc1 [compound 1764, N-((2-(4-carbamoylphenyl)thiazol-5-yl)methyl)-11-oxo-10, 11 dihydrodibenzo [b, f] [1, 4] thiazepine-8-carboxamide 5,5-dioxide]	1.1%	107%	
COc1ccc(-c2ncc(CNC(=O)c3ccc4c(c3)NC(=O)c3ccccc3S4)s2)cc1 [compound 1606]	3%	91%	
O=C(NCc1cnc(-c2ccc(O)c(F)c2)s1)c1ccc2c(c1)NC(=O)c1ccccc1S2(=O)=O [compound 1664]	0.6%	99%	
O=C(NCc1cnc(-n2cc(C(F)(F)F)cn2)s1)c1ccc2c(c1)NC(=O)c1ccccc1S2(=O)=O [compound 11039]	1.9%	92%	
CN(C)CCOc1ccc(-c2ncc(CNC(=O)c3ccc4c(c3)NC(=O)c3ccccc3S4)s2)cc1 [compound 1608]	12.4%	98%	
